Columns and labels:
[1] = system: redroot pigweed (AMARE); experiment: Test 6 field trial, postemergence; type: in vivo, Amaranthus retroflexus
Description: (§1) Corn seeds (hybrid ‘Pioneer 35Y62’) were planted in mid spring season, 3.8 cm deep in a silt loam soil having 4% organic matter and a pH of 5.8. Plots were 10.7 m long by 1.5 m wide with rows spaced 76 cm apart. Seeds were spaced 18 cm apart within the rows. The field was managed using conventional tillage practices. […] All treatments included a surfactant except glufosinate treatments, both alone and in combination. […] Results are summarized in Table 6 and are the means of the three replicates.

[2] = system: giant foxtail (SETFA); experiment: Test 8 field trial, preemergence; type: in vivo, Setaria faberi
Description: (§2) Corn seeds (hybrid ‘Pioneer 31G96’) were planted in mid spring season, 3.8 cm deep in a clay loam soil having 2% organic matter and a pH of 6.6. Plots were 6.1 m long by 3.0 m wide with rows spaced 76 cm apart. Seeds were spaced 15 cm apart within the rows. The field was managed using conventional tillage practices. […] A few of the weed species could not be evaluated at every timing. […] Results are the means of the three replicates.

[3] = system: Ipomoea grandiflora (IPOGF); experiment: Test 11 field trial, preemergence; type: in vivo
Description: (§3) Corn seeds (hybrid ‘Pioneer 3041’) were planted in mid spring season, 5 cm deep in a clay soil having 2.6% organic matter and a pH of 5.6. Plots were 8 m long by 1.5 m wide with rows spaced 80 cm apart. Seeds were spaced 15 cm apart within the rows. The field was managed using conventional tillage practices. […] Treatments consisted of Compound 2 or
(§4) Goosegrass was not evaluated 16 or 91 days after application.

[4] = system: Pennsylvania smartweed (POLPY); experiment: Test 6 field trial, postemergence; type: in vivo, Polygonum pensylvanicum
Description: as §1

[5] = system: velvetleaf (ABUTH); experiment: Test 1 field trial, preemergence; type: in vivo, Abutilon theophrasti
Description: (§5) Corn seeds (hybrid ‘Pioneer 34N43’) were planted in mid spring season, 3.8 cm deep in a silt loam soil having 4.6% organic matter and a pH of 6. Plots were 10.7 m long by 1.5 m wide with rows spaced 76 cm apart. Seeds were spaced 18 cm apart within the rows. The field was managed using conventional tillage practices. […] Results are summarized in Table 1 and are the means of the three replicates. […] Colby's Equation (Colby, S. R. “Calculating Synergistic and Antagonistic Responses of Herbicide Combinations,” Weeds, 15(1), pp 20-22 (1967)) calculates the expected additive effect of herbicidal mixtures, and for two active ingredients is of the form:
(§6) Pa+b=Pa+Pb−(PaPb/100) • wherein Pa+b is the percentage effect of the mixture expected from additive contribution of the individual components, • Pa is the observed percentage effect of the first active ingredient at the same use rate as in the mixture, and • Pb is the observed percentage effect of the second active ingredient at the same use rate as in the mixture.

[6] = system: ivyleaf morningglory (IPOHE); experiment: Test 8 field trial, preemergence; type: in vivo, Ipomoea hederacea
Description: as §2

[7] = system: common blackjack (BIDPI); experiment: Test 11 field trial, preemergence; type: in vivo, Bidens pilosa; design: scale not given here; conditions: alone or + atrazine 1500 or metolachlor 2500
Description: as §3, §4

[8] = system: giant foxtail (SETFA); experiment: Test 10 field trial, preemergence; type: in vivo, Setaria faberi; conditions: 28 DAA
Description: Corn seeds (hybrid ‘Pioneer 33P65 RR’) were planted in mid spring season, 2.5 cm deep in a silt loam soil. Plots were 9.1 m long by 3.0 m wide with rows spaced 76 cm apart. The field was managed using conventional tillage practices. […] Results are the means of the three replicates.

[9] = system: giant foxtail (SETFA); experiment: Test 1 field trial, preemergence; type: in vivo, Setaria faberi
Description: as §5, §6

[10] = system: Pennsylvania smartweed (POLPY); experiment: Test 1 field trial, preemergence; type: in vivo, Polygonum pensylvanicum
Description: as §5, §6

[11] = system: yellow foxtail (SETLU); experiment: Test 6 field trial, postemergence; type: in vivo, Setaria glauca
Description: as §1

[12] = system: corn (ZEAMD); experiment: Test 6 field trial, postemergence; type: in vivo, Zea mays ssp. indentata; conditions: hybrid Pioneer 35Y62, corn (Zea mays ssp. indentata), in vivo
Description: as §1

[13] = system: giant foxtail (SETFA); experiment: Test 5 field trial, postemergence; type: in vivo, Setaria faberi
Description: Corn seeds (hybrid ‘Pioneer 38H69’) were planted in mid spring season, 5.1 cm deep in a silty clay loam soil having 3% organic matter and a pH of 6.5. Plots were 9.1 m long by 3.0 m wide with rows spaced 76 cm apart. The field was managed using conventional tillage practices. […] All treatments included a surfactant except glufosinate treatments, both alone and in combination. […] Results are summarized in Table 5 and are the means of the three replicates.

[14] = system: common ragweed (AMBEL); experiment: Test 8 field trial, preemergence; type: in vivo, Ambrosia artemisiifolia
Description: as §2

[15] = 19 DAA, g a.i./ha: Cpd 2 50, S-Metolachlor 1870
[16] = 19 DAA, g a.i./ha: Cpd 2 100, Atrazine 1680, S-Metolachlor 1870
[17] = 19 DAA, g a.i./ha: Cpd 2 150, S-Metolachlor 1870
[18] = 29 DAA, g a.i./ha: Cpd 2 50, S-Metolachlor 1870
[19] = 29 DAA, g a.i./ha: Cpd 2 100, Atrazine 1680, S-Metolachlor 1870
[20] = 29 DAA, g a.i./ha: Cpd 2 150, S-Metolachlor 1870
[21] = 56 DAA, g a.i./ha: Cpd 2 50, S-Metolachlor 1870
[22] = 56 DAA, g a.i./ha: Cpd 2 100, Atrazine 1680, S-Metolachlor 1870
[23] = 56 DAA, g a.i./ha: Cpd 2 150, S-Metolachlor 1870
[24] = 28 DAA, g a.i./ha: Cpd 2 50, S-Metolachlor 1870
[25] = 28 DAA, g a.i./ha: Cpd 2 100, Atrazine 1680, S-Metolachlor 1870
[26] = 28 DAA, g a.i./ha: Cpd 2 150, S-Metolachlor 1870

Which results are given for COC(=O)c1nc(C2CC2)nc(N)c1Cl [Compound 2, methyl 6-amino-5-chloro-2-cyclopropyl-4-pyrimidinecarboxylate]?
AMARE Obs ([1]; 14 DAA, 30 g a.i./ha): 100%; AMARE Obs ([1]; 14 DAA, 60 g a.i./ha): 98%; AMARE Obs ([1]; 28 DAA, 30 g a.i./ha): 100%; AMARE Obs ([1]; 28 DAA, 60 g a.i./ha): 98%; SETFA Obs [2, 15]: 33%; SETFA Obs [2, 16]: 40%; SETFA Obs [2, 17]: 43%; SETFA Obs [2, 18]: 32%; SETFA Obs [2, 19]: 42%; SETFA Obs [2, 20]: 47%; SETFA Obs [2, 21]: 8%; SETFA Obs [2, 22]: 7%; SETFA Obs [2, 23]: 17%; IPOGF Obs ([3]; 16 DAA, Cpd 2/Cpd 1 at 62 g a.i./ha, alone or + atrazine 1500 or metolachlor 2500): 0; IPOGF Obs ([3]; 16 DAA, Cpd 2/Cpd 1 at 125 g a.i./ha, alone or + atrazine 1500 or metolachlor 2500): 40; IPOGF Obs ([3]; 30 DAA, Cpd 2/Cpd 1 at 62 g a.i./ha, alone or + atrazine 1500 or metolachlor 2500): 40; IPOGF Obs ([3]; 30 DAA, Cpd 2/Cpd 1 at 125 g a.i./ha, alone or + atrazine 1500 or metolachlor 2500): 60; IPOGF Obs ([3]; 44 DAA, Cpd 2/Cpd 1 at 62 g a.i./ha, alone or + atrazine 1500 or metolachlor 2500): 0; IPOGF Obs ([3]; 44 DAA, Cpd 2/Cpd 1 at 125 g a.i./ha, alone or + atrazine 1500 or metolachlor 2500): 50; IPOGF Obs ([3]; 62 DAA, 62 g a.i./ha, scale 0 to 100): 0; IPOGF Obs ([3]; 62 DAA, 125 g a.i./ha, scale 0 to 100): 0; IPOGF Obs ([3]; 91 DAA, 62 g a.i./ha, scale 0 to 100): 0; IPOGF Obs ([3]; 91 DAA, 125 g a.i./ha, scale 0 to 100): 0; POLPY Obs ([4]; 14 DAA, 30 g a.i./ha): 20%; POLPY Obs ([4]; 14 DAA, 60 g a.i./ha): 40%; POLPY Obs ([4]; 28 DAA, 30 g a.i./ha): 20%; POLPY Obs ([4]; 28 DAA, 60 g a.i./ha): 40%; ABUTH Obs [5, 24]: 0; ABUTH Obs [5, 25]: 0; ABUTH Obs [5, 26]: 0; ABUTH Obs [5, 21]: 0; ABUTH Obs [5, 22]: 0; ABUTH Obs [5, 23]: 10; IPOHE Obs [6, 15]: 58%; IPOHE Obs [6, 16]: 78%; IPOHE Obs [6, 17]: 83%; IPOHE Obs [6, 18]: 72%; IPOHE Obs [6, 19]: 97%; IPOHE Obs [6, 20]: 96%; IPOHE Obs [6, 21]: 82%; IPOHE Obs [6, 22]: 100%; IPOHE Obs [6, 23]: 100%; BIDPI Obs ([7]; 16 DAA, Cpd 2/Cpd 1 at 62 g a.i./ha): 20; BIDPI Obs ([7]; 16 DAA, Cpd 2/Cpd 1 at 125 g a.i./ha): 60; BIDPI Obs ([7]; 30 DAA, Cpd 2/Cpd 1 at 62 g a.i./ha): 20; BIDPI Obs ([7]; 30 DAA, Cpd 2/Cpd 1 at 125 g a.i./ha): 40; BIDPI Obs ([7]; 44 DAA, Cpd 2/Cpd 1 at 62 g a.i./ha): 20; BIDPI Obs ([7]; 44 DAA, Cpd 2/Cpd 1 at 125 g a.i./ha): 60; BIDPI Obs ([7]; 62 DAA, Cpd 2/Cpd 1 at 62 g a.i./ha): 0; BIDPI Obs ([7]; 62 DAA, Cpd 2/Cpd 1 at 125 g a.i./ha): 40; BIDPI Obs ([7]; 91 DAA, Cpd 2/Cpd 1 at 62 g a.i./ha): 0; BIDPI Obs ([7]; 91 DAA, Cpd 2/Cpd 1 at 125 g a.i./ha): 40; SETFA Obs ([8]; g a.i./ha: Cpd 2 50, S-Metolachlor 1870): 13%; SETFA Obs ([8]; g a.i./ha: Cpd 2 100, Atrazine 1680, S-Metolachlor 1870): 7%; SETFA Obs ([8]; g a.i./ha: Cpd 2 150, S-Metolachlor 1870): 20%; SETFA Obs [9, 24]: 0; SETFA Obs [9, 25]: 0; SETFA Obs [9, 26]: 0; SETFA Obs [9, 21]: 0; SETFA Obs [9, 22]: 0; SETFA Obs [9, 23]: 0; POLPY Obs [10, 24]: 0; POLPY Obs [10, 25]: 0; POLPY Obs [10, 26]: 0; POLPY Obs [10, 21]: 0; POLPY Obs [10, 22]: 0; POLPY Obs [10, 23]: 0; SETLU Obs ([11]; 14 DAA, 30 g a.i./ha): 0%; SETLU Obs ([11]; 14 DAA, 60 g a.i./ha): 0%; SETLU Obs ([11]; 28 DAA, 30 g a.i./ha): 0%; SETLU Obs ([11]; 28 DAA, 60 g a.i./ha): 0%; ZEAMD Obs ([12]; 14 days after application): 0%; ZEAMD Obs ([12]; 28 days after application): 0%; SETFA Obs ([13]; 16 DAA, Cpd 2 30 g a.i./ha alone or with glufosinate 470 or glyphosate 1120): 0%; SETFA Obs ([13]; 16 DAA, Cpd 2 60 g a.i./ha alone or with atrazine 1120, glufosinate 470 or glyphosate 1120): 0%; SETFA Obs ([13]; 31 DAA, Cpd 2 30 g a.i./ha alone or with glufosinate 470 or glyphosate 1120): 0%; SETFA Obs ([13]; 31 DAA, Cpd 2 60 g a.i./ha alone or with atrazine 1120, glufosinate 470 or glyphosate 1120): 2%; AMBEL Obs [14, 15]: 36%; AMBEL Obs [14, 16]: 73%; AMBEL Obs [14, 17]: 83%; AMBEL Obs [14, 18]: 65%; AMBEL Obs [14, 19]: 88%; AMBEL Obs [14, 20]: 96%; AMBEL Obs [14, 21]: 52%; AMBEL Obs [14, 22]: 90%; AMBEL Obs [14, 23]: 97%
